Patent US4394446A, “Process for the preparation of the antibiotic oxanosine” (Zaidan Hojin Biseibutsu Kagaku Kenkyu Kai, priority 1980, dated 1983)
Converted amounts (≈) assume the structure as drawn. “Also recorded” adds a separate entry of the source.

Legend:
HeLa = assay: Anti-HeLa activity; format: cell-based; conditions: 72 hours' culturing
Description: *number of cells after 72 hours' culturing in the presence of oxanosine

Mouse Leukemia L-1210 = assay: Effect against mouse leukemia L-1210, life-prolonging effect; format: in vivo, mouse (female, CDF series); conditions: ip, once each day for 9 days
Description: Cells (1×10^5) of leukemia L-1210 were intraperitoneally implanted in each of several groups of 8-week-old female mice of the CDF series (5 mice for each group), a solution of oxanosine in a physiological saline solution was intraperitoneally administered once each day for 9 days, and the carcinostatic effect was evaluated based on the life-prolonging effect (T/C, %).

[1] = system: Klebsiella pneumoniae PCI 602; assay: Antimicrobial spectrum in 0.5% peptone agar; format: cell-based; conditions: PCI602, read-out: Minimum Growth Inhibition Concentration
[2] = system: Escherichia coli ML1629 (multi-resistant strain); assay: Antimicrobial spectrum in 0.5% peptone agar; format: cell-based; conditions: read-out: Minimum Growth Inhibition Concentration
Gram-positive bacteria = assay: Antimicrobial spectrum, summary; format: cell-based; conditions: 0.5% peptone agar; words
[3] = system: Mycobacterium smegmatis 607; assay: Antimicrobial spectrum in 0.5% peptone agar; format: cell-based; conditions: Mycolicibacterium smegmatis, read-out: Minimum Growth Inhibition Concentration
Salmonella typhi T-63 = assay: Antimicrobial spectrum in 0.5% peptone agar; format: cell-based; conditions: Salmonella enterica, read-out: Minimum Growth Inhibition Concentration
Solubility in solvents = format: physicochemical
[4] = system: Bacillus subtilis NRRLB-558; assay: Antimicrobial spectrum in 0.5% peptone agar; format: cell-based; conditions: NRRLB558, read-out: Minimum Growth Inhibition Concentration
[5] = Carcinostatic activity (general statement); conditions: words
[6] = system: Salmonella enteritidis 1891; assay: Antimicrobial spectrum in 0.5% peptone agar; format: cell-based; conditions: Salmonella enterica, read-out: Minimum Growth Inhibition Concentration
Proteus rettgeri GN 466 = assay: Antimicrobial spectrum in 0.5% peptone agar; format: cell-based; conditions: Providencia rettgeri, GN466, read-out: Minimum Growth Inhibition Concentration
Candida albicans 3147 = assay: Antimicrobial spectrum in 0.5% peptone agar; format: cell-based; conditions: read-out: Minimum Growth Inhibition Concentration
Serratia marcescens = assay: Antimicrobial spectrum in 0.5% peptone agar; format: cell-based; conditions: read-out: Minimum Growth Inhibition Concentration
Proteus rettgeri GN 311 = assay: Antimicrobial spectrum in 0.5% peptone agar; format: cell-based; conditions: Providencia rettgeri, GN311, read-out: Minimum Growth Inhibition Concentration
[7] = Acute toxicity in the mouse; format: in vivo; conditions: iv
Escherichia coli K-12 [8] = assay: Titer by cup method on peptone-agar plate; format: cell-based; conditions: crystals; titer of culture filtrate designated as 1 u/ml
Description: Sakaguchi flasks (500 ml capacity) for a reciprocating type shaking machine were charged with 125 ml of a culture medium (pH value=7.0) comprising 1% of glucose, 1% of glycerol, 1% of sucrose, 0.5% of oat meal, 2% of soybean meal (Prorich supplied by Ajinomoto K.K.), 1% of pressed yeast (supplied by Oriental Kobo Kogyo K.K.), 0.5% of Casamino acid (supplied by Difco Co.) and 0.1% of calcium carbonate, and the culture medium was sterilized at 120° C. for 20 minutes in an autoclave. The culture medium in each was inoculated with one platinum loop of MG265-CF3 (Fermentation Research Institute Deposit No. 5735), and culturing was carried out for 2 days at 28° C. with shaking at 120 rpm. […] (The titer was determined according to the cup method using Escherichia coli K-12 as a test organism on peptone-agar plate, and the titer of the culture filtrate was designated as 1 u/ml.) The filtrate was passed through a column packed with 500 ml of active carbon powder for chromatography (supplied by Wako Junyaku) to absorb the oxanosine on the active carbon. […]

Proteus vulgaris OX 19 = assay: Antimicrobial spectrum in 0.5% peptone agar; format: cell-based; conditions: OX19, read-out: Minimum Growth Inhibition Concentration
[9] = system: Staphylococcus aureus FDA 209P; assay: Antimicrobial spectrum in 0.5% peptone agar; format: cell-based; conditions: FDA209P, read-out: Minimum Growth Inhibition Concentration
[10] = system: Pseudomonas aeruginosa A3; assay: Antimicrobial spectrum in 0.5% peptone agar; format: cell-based; conditions: read-out: Minimum Growth Inhibition Concentration
Sarcina lutea PCI 1001 = assay: Antimicrobial spectrum in 0.5% peptone agar; format: cell-based; conditions: Micrococcus luteus, PCI1001, read-out: Minimum Growth Inhibition Concentration
[11] = system: Shigella dysenteriae JS 11910; assay: Antimicrobial spectrum in 0.5% peptone agar; format: cell-based; conditions: JS11910, read-out: Minimum Growth Inhibition Concentration
[12] = system: Staphylococcus aureus, Smith strain; assay: Antimicrobial spectrum in 0.5% peptone agar; format: cell-based; conditions: read-out: Minimum Growth Inhibition Concentration
Shigella sonnei JS 11746 = assay: Antimicrobial spectrum in 0.5% peptone agar; format: cell-based; conditions: JS11746, read-out: Minimum Growth Inhibition Concentration
[13] = system: Shigella flexneri 4B JS 11811; assay: Antimicrobial spectrum in 0.5% peptone agar; format: cell-based; conditions: 4BJS11811, read-out: Minimum Growth Inhibition Concentration
[14] = system: Proteus mirabilis IFM OM-9; assay: Antimicrobial spectrum in 0.5% peptone agar; format: cell-based; conditions: IFMOM9, read-out: Minimum Growth Inhibition Concentration
[15] = system: Micrococcus flavis FDA 16; assay: Antimicrobial spectrum in 0.5% peptone agar; format: cell-based; conditions: FDA16, read-out: Minimum Growth Inhibition Concentration
[16] = system: Corynebacterium bovis 1810; assay: Antimicrobial spectrum in 0.5% peptone agar; format: cell-based; conditions: read-out: Minimum Growth Inhibition Concentration
[17] = system: Bacillus subtilis PCI 219; assay: Antimicrobial spectrum in 0.5% peptone agar; format: cell-based; conditions: PCI219, read-out: Minimum Growth Inhibition Concentration
[18] = Antiviral activity (general statement); conditions: words, no test described
Escherichia coli K-12 [19] = assay: Antimicrobial spectrum in 0.5% peptone agar; format: cell-based; conditions: K12, read-out: Minimum Growth Inhibition Concentration
Gram-negative bacteria = assay: Antimicrobial spectrum, summary; format: cell-based; conditions: 0.5% peptone agar; words
Escherichia coli NIHJ = assay: Antimicrobial spectrum in 0.5% peptone agar; format: cell-based; conditions: read-out: Minimum Growth Inhibition Concentration

With `Nc1nc2c(ncn2[C@@H]2O[C@H](CO)[C@@H](O)[C@H]2O)c(=O)o1` [oxanosine] the Cells (HeLa; 0.1 mcg/ml) was 11.70 × 10^5 /plate, the Cells (HeLa; 1 mcg/ml) was 10.31 × 10^5 /plate and the Cells (HeLa; 10 mcg/ml) was 8.68 × 10^5 /plate. For the same compound, the Cells (HeLa; 100 mcg/ml) was 1.08 × 10^5 /plate, the inhibition at 0.1 µg/mL (HeLa; Homo sapiens, HeLa, 0.1 mcg/ml, read-out: Percent Inhibition) was 1.76% and the inhibition at 1 µg/mL (HeLa; Homo sapiens, HeLa, 1 mcg/ml, read-out: Percent Inhibition) was 15.3%. The inhibition at 10 µg/mL (HeLa; Homo sapiens, HeLa, 10 mcg/ml, read-out: Percent Inhibition) was 31.2%, the inhibition at 100 µg/mL (HeLa; Homo sapiens, HeLa, 100 mcg/ml, read-out: Percent Inhibition) was 100% and the IC50 (HeLa; Homo sapiens, HeLa) was about 30.9 µg/mL (≈ 109 µM). For the same compound, the “Life-Prolonging Effect (T/C, %)” value (Mouse Leukemia L-1210; 62.5 μg/mouse/day) was 100%, the “Life-Prolonging Effect (T/C, %)” value (Mouse Leukemia L-1210; 125 μg/mouse/day) was 120% and the “Life-Prolonging Effect (T/C, %)” value (Mouse Leukemia L-1210; 250 μg/mouse/day) was 120%. The “Life-Prolonging Effect (T/C, %)” value (Mouse Leukemia L-1210; 500 μg/mouse/day) was 153%, the “Life-Prolonging Effect (T/C, %)” value (Mouse Leukemia L-1210; 1000 μg/mouse/day) was 160% and the “life-prolonging effect in leukemia L-1210 tumor-bearing mice” value (Mouse Leukemia L-1210; words) was “has a life-prolonging effect”. For the same compound, the MIC [1] was over 100 µg/mL, the MIC [2] was 25 µg/mL (≈ 88 µM) and the “growth-inhibiting action against Gram-positive bacteria” value (Gram-positive bacteria) was “does not show growth-inhibiting action”. The MIC [3] was over 100 µg/mL, the MIC (Salmonella typhi T-63) was over 100 µg/mL and the “Solubility in Solvents” value (Solubility in solvents; organic solvents such as ethanol, acetone, ethyl acetate (b147 only), ether, benzene) was “insoluble or only slightly soluble”. The “Solubility in Solvents” value (Solubility in solvents; water, methanol and dimethylsulfoxide) was “Soluble”, the MIC [4] was over 100 µg/mL and the carcinostatic activity [5] was “has carcinostatic and antiviral activity; also recorded: has carcinostatic and antiviral actions”. It also gave an MIC [6] of over 100 µg/mL, an MIC (Proteus rettgeri GN 466) of 12.5 µg/mL (≈ 44 µM) and an MIC (Candida albicans 3147) of over 100 µg/mL. The MIC (Serratia marcescens) was over 100 µg/mL, the MIC (Proteus rettgeri GN 311) was over 100 µg/mL and the LD50 ([7]; in vivo) was over 200 mg/kg. The “acute toxicity compared with various known nucleic acid type antibiotic substances” value ([7]; words) was “lower than those of various known nucleic acid type antibiotic substances”, the titer (Escherichia coli K-12 [8]) was 117 u/mg and the MIC (Proteus vulgaris OX 19) was 25 µg/mL (≈ 88 µM). For the same compound, the MIC [9] was over 100 µg/mL, the MIC [10] was over 100 µg/mL and the MIC (Sarcina lutea PCI 1001) was over 100 µg/mL. For the same compound, the MIC [11] was 25 µg/mL (≈ 88 µM), the MIC [12] was over 100 µg/mL and the MIC (Shigella sonnei JS 11746) was 25 µg/mL (≈ 88 µM). The MIC [13] was 6.25 µg/mL (≈ 22 µM), the MIC [14] was 12.5 µg/mL (≈ 44 µM) and the MIC [15] was over 100 µg/mL. The MIC [16] was over 100 µg/mL, the MIC [17] was over 100 µg/mL and the antiviral activity [18] was “has carcinostatic and antiviral activity; also recorded: has carcinostatic and antiviral actions”. For the same compound, the MIC (Escherichia coli K-12 [19]) was 12.5 µg/mL (≈ 44 µM), the “growth-inhibiting action against Gram-negative bacteria” value (Gram-negative bacteria) was “relatively strong growth-inhibiting action; also recorded: relatively strong inhibitory activity” and the MIC (Escherichia coli NIHJ) was over 100 µg/mL.
